Results taken from patent publication US5721234A, “Glutamate receptor antagonists: fused cycloalkylouinoxalinediones” (Warner-Lambert Company, priority 1995, dated 1998).

Tests used:
[1] = biological target: kainate site (non-NMDA receptor); assay: Kainate site (non-NMDA receptor) binding affinity (London and Coyle)
[2] = biological target: T1, glycine site of the NMDA receptor (Rattus norvegicus, UniProt P35439); assay: Glycine site of the NMDA receptor binding affinity (Jones et al.)
T1 construct: from tissue

[3] = tested on: AMPA-induced neuronal damage in primary cortical neuronal cultures; assay: AMPA-induced neuronal damage in primary cortical neuronal cultures, LDH release; format: cell-based; conditions: long-term exposure to 100 μM AMPA
Procedure: To functionally measure AMPA antagonist activity, the effects of the agent on AMPA-induced neuronal damage in primary cortical neuronal cultures was examined using techniques similar to those outlined by Koh, J.-Y. et al., J. Neurosci, 1990; 10:693. The neuronal damage produced by long-term exposure to 100 μM AMPA was measured by the release of the cytosolic enzyme lactate dehydrogenase (LDH).
Selected compounds of the present invention were tested by one or more of the above-described assays. The IC50 values set forth in Tables 1 and 2 are a measure of the concentration (μM) of the test substance which inhibits 50% of an induced release from the tested receptors.

AMPA receptors = assay: AMPA receptor binding affinity (Honore et al.)
[4] = Table 2, cyclopentyl-fused analogs
[5] = Table 1, cyclohexyl-fused analogs

Row | IC50 [1, 4] | IC50 [2, 4] | IC50 (AMPA receptors; [4]) | IC50 [1, 5] | IC50 [2, 5] | IC50 (AMPA receptors; [5]) | Compound | IC50 [3, 4] | IC50 [3, 5]
1 | 0.36 µM | 0.4 µM | 0.1 µM |  |  |  | O=C(NC1Cc2c([N+](=O)[O-])cc3[nH]c(=O)c(=O)[nH]c3c2C1)c1ccsc1 (stereo not shown) [Example 60, Thiophene-3-carboxylic acid (6-nitro-2,3-dioxo-2,3,4,7,8,9-hexahydro-1H-cyclopenta[f]quinoxalin-8-yl)amide] | 14 µM | 
2 |  |  |  | 2.2 µM | 0.62 µM | 0.56 µM | CC(=O)NC1CCc2c([N+](=O)[O-])cc3[nH]c(=O)c(=O)[nH]c3c2C1 (stereo not shown) [Example 17, N-(6-nitro-2,3-dioxo-1,2,3,4,7,8,9,10-octahydro-benzo[f]quinoxalin-9-yl)-acetamide] |  | > 30 µM
3 | 0.38 µM | > 1 µM | 0.14 µM |  |  |  | O=C(NC1Cc2c([N+](=O)[O-])cc3[nH]c(=O)c(=O)[nH]c3c2C1)c1ccoc1 (stereo not shown) [Example 59, Furan-3-carboxylic acid (6-nitro-2,3-dioxo-2,3,4,7,8,9-hexahydro-1H-cyclopenta[f]quinoxalin-8-yl)-amide] | 14 µM | 
4 | 1.03 µM | > 1 µM | 0.2 µM |  |  |  | O=C(NC1Cc2c([N+](=O)[O-])cc3[nH]c(=O)c(=O)[nH]c3c2C1)c1cccnc1 (stereo not shown) [Example 61, N-(6-Nitro-2,3-dioxo-2,3,4,7,8,9-hexahydro-1H-cyclopenta[f]quinoxalin-8-yl)-nicotinamide] | 28 µM | 
